Measured values taken from publication PMC8119466, “A screen of FDA-approved drugs identifies inhibitors of protein tyrosine phosphatase 4A3 (PTP4A3 or PRL-3)” (Scientific Reports, 2021).
Structures can show the parent of a compound that is named as a salt. Where two headings read alike, the source gives them in different places.

Columns and labels:
Type in all cases: biochemical
recombinant PRL-3 = target: T1, recombinant PRL-3 (Homo sapiens, UniProt O75365); assay: In vitro phosphatase assay (DiFMUP hydrolysis), PRL-3
T1 construct: 6xHis (N, cleaved yes); made in house; host or cells: E. coli One Shot BL21 Star

recombinant PRL-1 = target: T2, recombinant PRL-1 (Homo sapiens, UniProt Q93096); assay: In vitro phosphatase assay (DiFMUP hydrolysis), PRL-1
T2 construct: 6xHis (N, cleaved yes); made in house; host or cells: E. coli One Shot BL21 Star
T2 sequence (Q93096 1-173): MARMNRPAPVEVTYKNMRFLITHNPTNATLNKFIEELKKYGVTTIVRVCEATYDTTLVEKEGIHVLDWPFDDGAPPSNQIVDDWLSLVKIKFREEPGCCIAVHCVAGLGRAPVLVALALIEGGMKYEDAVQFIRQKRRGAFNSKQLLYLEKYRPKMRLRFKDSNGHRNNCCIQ

recombinant PRL-2 = target: T3, recombinant PRL-2 (Homo sapiens, UniProt Q12974); assay: In vitro phosphatase assay (DiFMUP hydrolysis), PRL-2; conditions: for % Phosphatase Activity (compared to DMSO) PRL-2: FDA-approved drug screen;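 as to all read-outs here: PRL-2 activity read as DiFMUP hydrolysis after 20 min at room temperature with drug, enzyme first pre-reduced at 4 °C for 20 min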
T3 construct: 6xHis (N, cleaved yes); made in house; host or cells: E. coli One Shot BL21 Star
T3 sequence (Q12974 1-167): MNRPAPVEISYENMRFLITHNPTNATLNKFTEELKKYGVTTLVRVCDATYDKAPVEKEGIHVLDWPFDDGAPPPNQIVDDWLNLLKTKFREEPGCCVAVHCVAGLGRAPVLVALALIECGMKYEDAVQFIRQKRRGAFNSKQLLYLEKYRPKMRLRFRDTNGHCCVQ

[1] = FDA-approved drug screen, compared to DMSO
[2] = FDA-approved drug screen, activity compared to DMSO

T1 sequence (O75365 whole entry): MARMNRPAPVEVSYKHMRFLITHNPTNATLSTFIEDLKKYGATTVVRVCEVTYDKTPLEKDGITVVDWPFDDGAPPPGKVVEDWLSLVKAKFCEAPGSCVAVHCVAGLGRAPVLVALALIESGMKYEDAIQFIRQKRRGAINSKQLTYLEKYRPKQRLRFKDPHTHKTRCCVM

Compound	% Phosphatase Activity (compared to DMSO) PRL-3 (recombinant PRL-3; [1])	% Phosphatase Activity (compared to DMSO) PRL-1 (recombinant PRL-1; [1])	% Phosphatase Activity (compared to DMSO) PRL-2 (recombinant PRL-2; compared to DMSO)	further results
CCCC(=O)OCOC(=O)C1=C(C)NC(C)=C(C(=O)OC)C1c1cccc(Cl)c1Cl (stereo not shown) [Clevidipine Butyrate]	262%	473%	437%	–
C#C[C@]1(O)C=C[C@H]2[C@@H]3CCC4=CC(=O)CC[C@@H]4[C@H]3CC[C@@]21CC [Gestodene]	77%	91%	102%	–
O=C(O)C[C@H](O)C[C@H](O)/C=C/c1c(C2CC2)nc2ccccc2c1-c1ccc(F)cc1 [Pitavastatin Calcium]	92%	82%	88%	–
[O-][n+]1cccc(CO)c1 [Mepiroxol]	87%	100%	112%	–
COc1ccc(C[C@@H](C)NC[C@H](O)c2ccc(O)c(NC=O)c2)cc1.COc1ccc(C[C@@H](C)NC[C@H](O)c2ccc(O)c(NC=O)c2)cc1.O=C(O)/C=C/C(=O)O [Formoterol Hemifumarate]	91%	95%	106%	–
CC(CN1c2ccccc2Sc2ccccc21)N(C)C.Cl (stereo not shown) [Promethazine HCl]	77%	99%	106%	–
O=C1CCc2cc(OCCCCc3nnnn3C3CCCCC3)ccc2N1 [Cilostazol]	69%	88%	83%	–
CCOc1cc(N)c(Cl)cc1C(=O)NCC1CN(Cc2ccc(F)cc2)CCO1 (stereo not shown) [Mosapride Citrate]	57%	88%	101%	–
O=C(O)CCc1nc(-c2ccccc2)c(-c2ccccc2)o1 [Oxaprozin]	71%	96%	106%	–
CC[C@H](C)C(=O)O[C@H]1C[C@H](O)C=C2C=C[C@H](C)[C@H](CC[C@@H](O)C[C@@H](O)CC(=O)O)[C@H]21 [Pravastatin sodium]	93%	93%	113%	–
COc1cc2c(Oc3ccc(NC(=O)C4(C(=O)Nc5ccc(F)cc5)CC4)cc3F)ccnc2cc1OCCCN1CCOCC1 [Foretinib (GSK1363089)]	97%	103%	105%	–
CCCNCC(O)COc1ccccc1C(=O)CCc1ccccc1 (stereo not shown) [Propafenone HCl]	79%	98%	114%	–
O=C(O)c1ccccc1Nc1cccc(C(F)(F)F)c1 [Flufenamic acid]	69%	81%	85%	–
Cc1ccsc1C(=CCCN1CCC[C@@H](C(=O)O)C1)c1sccc1C [Tiagabine hydrochloride]	–	–	–	% Phosphatase Activity (compared to DMSO) PRL-3 (recombinant PRL-3; [2]): 83%; % Phosphatase Activity (compared to DMSO) PRL-1 (recombinant PRL-1; [2]): 100%; % Phosphatase Activity (compared to DMSO) PRL-2 (recombinant PRL-2; activity compared to DMSO): 97%
CC(C)NCC(O)c1ccccc1Cl.Cl (stereo not shown) [Clorprenaline HCl]	75%	91%	102%	–
CN(C)c1nc(N(C)C)nc(N(C)C)n1 [Altretamine]	71%	89%	89%	–
CN1CCC(OC(c2ccccc2)c2ccccc2)CC1 [Diphenylpyraline HCl]	98%	97%	100%	–
COC(=O)N(C)c1c(N)nc(-c2nn(Cc3ccccc3F)c3ncccc23)nc1N [Riociguat (BAY 63-2521)]	90%	99%	82%	–
O=C(O)c1cc(-c2ccccc2)nc2ccccc12 [Cinchophen]	79%	86%	101%	–
O=S(=O)(O)CCS [Mesna]	102%	95%	93%	–

Compound	% Phosphatase Activity (compared to DMSO) PRL-3 (recombinant PRL-3; [1])	% Phosphatase Activity (compared to DMSO) PRL-1 (recombinant PRL-1; [1])	% Phosphatase Activity (compared to DMSO) PRL-2 (recombinant PRL-2; compared to DMSO)	further results
C[C@@H]1C/C=C/C=C/C=C/C=C/[C@H](O[C@@H]2O[C@H](C)[C@@H](O)[C@H](N)[C@@H]2O)C[C@@H]2O[C@](O)(C[C@@H](O)C[C@H]3O[C@@H]3/C=C/C(=O)O1)C[C@H](O)[C@H]2C(=O)O [Natamycin]	78%	96%	82%	–
Cl.Cl.Cl.O[C@@H](COc1cccc2ncccc12)CN1CCN([C@@H]2c3ccccc3[C@@H]3[C@H](c4ccccc42)C3(F)F)CC1 [Zosuquidar (LY335979) 3HCl]	–	–	–	% Phosphatase Activity (compared to DMSO) PRL-3 (recombinant PRL-3; [2]): 91%; % Phosphatase Activity (compared to DMSO) PRL-1 (recombinant PRL-1; [2]): 107%; % Phosphatase Activity (compared to DMSO) PRL-2 (recombinant PRL-2; activity compared to DMSO): 98%
CCCCc1oc2ccc(NS(C)(=O)=O)cc2c1C(=O)c1ccc(OCCCN(CCCC)CCCC)cc1 [Dronedarone HCl]	96%	116%	131%	–
NC(=O)N1c2ccccc2CC(=O)c2ccccc21 [Oxcarbazepine]	89%	104%	112%	–
Cc1cn([C@H]2O[C@@H](CO)[C@H](O)[C@H]2F)c(=O)[nH]c1=O [Clevudine]	89%	103%	117%	–
COC(=O)N[C@H](C(=O)N1CC2(CC2)C[C@H]1c1nc(-c2ccc3c(c2)C(F)(F)c2cc(-c4ccc5[nH]c([C@@H]6[C@H]7CC[C@H](C7)N6C(=O)[C@@H](NC(=O)OC)C(C)C)nc5c4)ccc2-3)c[nH]1)C(C)C [Ledipasvir (GS5885)]	144%	174%	115%	–
Oc1c(Cl)cc(Cl)cc1Sc1cc(Cl)cc(Cl)c1O [Bithionol, reference compound]	6%	52%	80%	IC50 (recombinant PRL-3; 2.5 µM protein, DiFMUP at KM, read-out: Calculated IC50, PRL-3 phosphatase activity): 33 ± 2 µM; IC50 (recombinant PRL-1; 2.5 µM protein, DiFMUP at KM, read-out: Calculated IC50, PRL-1 phosphatase activity): 79 ± 25 µM; IC50 (recombinant PRL-2; 2.5 µM protein, DiFMUP at KM, read-out: Calculated IC50, PRL-2 phosphatase activity): 115 ± 34 µM
CC1=NS(=O)(=O)c2cc(Cl)ccc2N1 [Diazoxide]	89%	99%	94%	–
Cc1cc(-n2c(=O)[nH]c(=O)n(C)c2=O)ccc1Oc1ccc(SC(F)(F)F)cc1 [Toltrazuril]	–	–	–	% Phosphatase Activity (compared to DMSO) PRL-3 (recombinant PRL-3; [2]): 73%; % Phosphatase Activity (compared to DMSO) PRL-1 (recombinant PRL-1; [2]): 88%; % Phosphatase Activity (compared to DMSO) PRL-2 (recombinant PRL-2; activity compared to DMSO): 93%
COc1cc2c(cc1OC)CC(=O)N(CCCN(C)C[C@H]1Cc3cc(OC)c(OC)cc31)CC2.Cl [Ivabradine HCl]	71%	108%	113%	–
O=S(=O)([O-])CCSSCCS(=O)(=O)[O-].[Na+].[Na+] [Dimesna]	79%	99%	99%	–
CCOC(=O)c1cncn1[C@H](C)c1ccccc1 [Etomidate]	79%	98%	91%	–
C[C@H](N[C@@H](CCc1ccccc1)C(=O)O)C(=O)N1CCC[C@H]1C(=O)O.O.O [Enalaprilat Dihydrate]	78%	102%	102%	–
N[C@@H]1CN(c2c(F)cc3c(=O)c(C(=O)O)cn([C@@H]4C[C@@H]4F)c3c2Cl)CC12CC2.O [Sitafloxacin Hydrate]	–	–	–	% Phosphatase Activity (compared to DMSO) PRL-3 (recombinant PRL-3; [2]): 81%; % Phosphatase Activity (compared to DMSO) PRL-1 (recombinant PRL-1; [2]): 91%; % Phosphatase Activity (compared to DMSO) PRL-2 (recombinant PRL-2; activity compared to DMSO): 90%
C=CCN1CC[C@]23c4c5ccc(O)c4O[C@H]2C(=O)CC[C@@]3(O)[C@H]1C5 [Naloxone HCl]	–	105%	123%	–
Gentamicin Sulfate	–	95%	96%	–
CCN(CC)CCCC(C)Nc1ccnc2cc(Cl)ccc12 (stereo not shown) [Chloroquine Phosphate]	–	104%	115%	–
CN/C(=N/CCSCc1nc[nH]c1C)NC#N [Cimetidine]	–	–	–	% Phosphatase Activity (compared to DMSO) PRL-3 (recombinant PRL-3): 112%; % Phosphatase Activity (compared to DMSO) PRL-1 (recombinant PRL-1): 96%
CN1CCN(CCCN2c3ccccc3Sc3ccc(C(F)(F)F)cc32)CC1.Cl.Cl [Trifluoperazine 2HCl]	–	–	–	% Phosphatase Activity (compared to DMSO) PRL-3 (recombinant PRL-3; [2]): 100%; % Phosphatase Activity (compared to DMSO) PRL-1 (recombinant PRL-1; [2]): 103%
